Columns and labels:
[1] = 298.15 K; 101.33 kPa; Liquid
[2] = xn = mol fraction of the nth substance listed; conditions: 298.15 K, 101 kPa, Liquid

Cc1ccccc1C [1,2-dimethylbenzene]
[1]
Conditions	mass density [kg/m3]	viscosity [mPa·s]
–	874.89	0.7506

Cc1ccccc1C [1,2-dimethylbenzene] + CCCCCC
[2]
Conditions	mass density [kg/m3]	viscosity [mPa·s]
x2 = 0.052	863.09	0.678
x2 = 0.1413	842.86	0.5944
x2 = 0.2482	818.74	0.5239
x2 = 0.2901	809.33	0.493
x2 = 0.355	794.79	0.462
x2 = 0.4004	784.66	0.4425
x2 = 0.4815	766.65	0.4126
x2 = 0.51	760.35	0.4031
x2 = 0.5856	743.71	0.3816
x2 = 0.6351	732.88	0.3711
x2 = 0.6753	724.12	0.3632
x2 = 0.7858	700.23	0.3344
x2 = 0.8317	690.38	0.3264
x2 = 0.9014	675.52	0.314

Cc1cccc(C)c1 [1,3-dimethylbenzene]
[1]
Conditions	mass density [kg/m3]	viscosity [mPa·s]
–	859.78	0.583

Cc1cccc(C)c1 [1,3-dimethylbenzene] + CCCCCC
[2]
Conditions	viscosity [mPa·s]
x2 = 0.1329	0.4984
x2 = 0.1519	0.4896
x2 = 0.2717	0.4418
x2 = 0.339	0.4221
x2 = 0.4303	0.3978
x2 = 0.448	0.3935
x2 = 0.5734	0.3652
x2 = 0.643	0.3513
x2 = 0.6663	0.3473
x2 = 0.719	0.3389
x2 = 0.8049	0.3238
x2 = 0.873	0.3175
x2 = 0.9278	0.3115

Cc1ccc(C)cc1 [1,4-dimethylbenzene]
[1]
Conditions	mass density [kg/m3]	viscosity [mPa·s]
–	856.51	0.5999

Cc1ccc(C)cc1 [1,4-dimethylbenzene] + CCCCCC
[2]
Conditions	mass density [kg/m3]	viscosity [mPa·s]
x2 = 0.0423	847.8	0.566
x2 = 0.1073	834.45	0.5235
x2 = 0.2137	812.6	0.4702
x2 = 0.2956	795.81	0.4378
x2 = 0.3769	779.21	0.4119
x2 = 0.4201	770.42	0.3998
x2 = 0.5355	747.03	0.3717
x2 = 0.562	741.69	0.3654
x2 = 0.6427	725.47	0.3502
x2 = 0.7455	704.95	0.3324
x2 = 0.7909	695.94	0.3256
x2 = 0.8792	678.48	0.313
x2 = 0.9599	662.62	0.3024

CCc1ccccc1 [ethylbenzene]
[1]
Conditions	mass density [kg/m3]	viscosity [mPa·s]
–	862.37	0.6369

CCc1ccccc1 [ethylbenzene] + CCCCCC
[2]
Conditions	viscosity [mPa·s]
x2 = 0.0437	0.6071
x2 = 0.0884	0.5751
x2 = 0.183	0.5169
x2 = 0.2262	0.4791
x2 = 0.2774	0.4672
x2 = 0.3283	0.445
x2 = 0.3784	0.4234
x2 = 0.4359	0.4047
x2 = 0.488	0.3902
x2 = 0.5429	0.3761
x2 = 0.5916	0.3654
x2 = 0.6534	0.3527
x2 = 0.705	0.3426
x2 = 0.7644	0.3326
x2 = 0.809	0.325
x2 = 0.8882	0.313
x2 = 0.9478	0.3046

CCCCCC [hexane]
[1]
Conditions	mass density [kg/m3]	viscosity [mPa·s]
–	654.7	0.2973

From the NIST ThermoML archive (doi:10.1007/s10765-009-0622-2)
